Data taken from patent publication US20060106106A1, “Beta-hydroxyphenylalkylamines and their use for treating glaucoma” (priority 2002, published 2006).
Structures can show the parent of a compound that is named as a salt.

How the values were obtained:
5-HT2A [1] = target: T1, 5-HT2A (Rattus norvegicus, UniProt P14842); assay: 5-HT2 Functional Assay: [Ca2+]i Mobilization (FLIPR) in A7r5 cells; assay type: cell-based; details: for Emax: A7r5 cells, FLIPR, percentage of maximum 5-HT-induced response, read-out: 5-HT2A % Emax (Ca+2 Assay)
T1 construct: [^3H]myo-inositol-labeled A7r5 rat vascular smooth muscle cells; endogenous in cells; host or cells: A7r5 rat vascular smooth muscle cells
T1 sequence (P14842 whole entry): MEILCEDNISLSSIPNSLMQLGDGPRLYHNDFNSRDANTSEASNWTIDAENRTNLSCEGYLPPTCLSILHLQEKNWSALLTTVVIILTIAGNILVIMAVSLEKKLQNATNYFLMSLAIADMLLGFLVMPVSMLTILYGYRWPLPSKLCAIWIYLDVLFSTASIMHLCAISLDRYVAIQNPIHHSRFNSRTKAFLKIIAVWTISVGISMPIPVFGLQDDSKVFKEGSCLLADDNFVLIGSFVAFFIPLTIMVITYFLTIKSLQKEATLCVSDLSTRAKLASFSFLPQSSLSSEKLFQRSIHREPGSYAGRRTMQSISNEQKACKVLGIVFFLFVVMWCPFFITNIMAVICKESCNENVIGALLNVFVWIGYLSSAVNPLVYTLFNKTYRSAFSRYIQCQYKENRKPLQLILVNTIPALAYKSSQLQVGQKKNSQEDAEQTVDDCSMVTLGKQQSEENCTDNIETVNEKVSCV
Protocol: 5-HT2 Functional Assay: [Ca^2+]i Mobilization
The receptor-mediated mobilization on intracellular calcium ([Ca^2+]i) was studied using the Fluorescence Imaging Plate Reader (FLIPR) instrument. Rat vascular smooth muscle cells, A7r5, were grown in a normal media of DMEM/10% FBS and 10 μg/mL gentamycin. Confluent cell monolayers were trypsinized, pelleted, and re-suspended in normal media. Cells were seeded in a 50 μL volume at a density of 20,000 cells/well in a black wall, 96-well tissue culture plate and grown for 2 days.
On the day of the experiment, one vial of FLIPR Calcium Assay Kit dye was re-suspended in 50 mL of a FLIPR buffer consisting of Hank's Balanced Salt Solution (HBSS), 20 mM HEPES, and 2.5 mM probenecid, pH 7.4. Cells were loaded with the calcium-sensitive dye by addition of an equal volume (50 μL) to each well of the 96-well plate and incubated with dye for 1 h at 23° C.
Compounds were diluted 1:50 in 20% DMSO/20% Ethanol. For “hit” screening, compounds were further diluted 1:10 in FLIPR buffer and tested at a final concentration of 10 μM.
The compound plate and cell plate were placed in the FLIPR instrument. At the beginning of an experimental run, a signal test was performed to check the basal fluorescence signal from the dye-loaded cells and the uniformity of the signal across the plate. The basal fluorescence was adjusted between 8000-12000 counts by modifying the exposure time, the camera F-stop, or the laser power. Instrument settings for a typical assay were the following: laser power 0.3-0.6 W, camera F-stop F/2, and exposure time 0.4 sec. An aliquot (25 μL) of the test compound was added to the existing 100 μL dye-loaded cells at a dispensing speed of 50 μL/sec. Fluorescence data were collected in real-time at 1.0 sec intervals for the first 60 secs and at 6.0 sec intervals for an additional 120 secs. Responses were measured as peak fluorescence intensity minus basal and where appropriate were expressed as a percentage of a maximum 5-HT-induced response.

5-HT2A [2] = target: T1, 5-HT2A; assay: 5-HT2 Functional Assay: Phosphoinositide (PI) Turnover Assay in A7r5 cells; assay type: cell-based; details: for Emax: A7r5 cells, relative to 5-HT (set at 100%)
Protocol: 5-HT2 Functional Assay: Phosphoinositide (PI) Turnover Assay
The relative agonist activity of serotonergic compounds at the 5-HT2 receptor can be determined in vitro using the ability of the compounds to stimulate the production of [^3H]inositol phosphates in [^3H]myo-inositol-labeled A7r5 rat vascular smooth muscle cells by their ability to activate the enzyme phospholipase C. These cells are grown in culture plates, maintained in a humidified atmosphere of 5% CO2 and 95% air and fed semi-weekly with Dulbecco's modified Eagle medium (DMEM) containing 4.5 g/L glucose and supplemented with 2 mM glutamine, 10 μg/ml gentamicin, and 10% fetal bovine serum. For the purpose of conducting the phosphoinositide (PI) turnover experiments, the A7r5 cells are cultured in 24-well plates as previously [J. Pharmacol. Expt. Ther. 286, 411 (1998)]. Confluent cells are exposed for 24-30 hrs to 1.5 μCi [^3H]-myo-inositol (18.3 Ci/mmol) in 0.5 ml of serum-free medium. Cells are then rinsed once with DMEM/F-12 containing 10 mM LiCl prior to incubation with the test agent (or solvent as the control) in 1.0 mL of the same medium for 1 hr at 37° C., after which the medium is aspirated and 1 ml of cold 0.1 M formic acid added to stop the reaction. The chromatographic separation of [^3H]-inositol phosphates ([^3H]-IPs) on an AG-1-X8 column is performed as previously described [J. Pharmacol. Expt. Ther. 286, 411 (1998)] with sequential washes with H2O and 50 mM ammonium formate, followed by elution of the total [^3H]-IPs fraction with 1.2 M ammonium formate containing 0.1 M formic acid. The eluate (4 mL) is collected, mixed with 15 ml scintillation fluid, and the total [^3H]-IPs determined by scintillation counting on a beta-counter. Concentration-response data are analyzed by the sigmoidal fit function of the Origin Scientific Graphics software (Microcal Software, Northampton, Mass.) to determine agonist potency (EC50 value) and efficacy (Emax). Serotonin (5-HT) is used as a positive control (standard) agonist compound and the efficacy of test compounds is compared to that of 5-HT (set at 100%).

| Compound | melting point [°C] | Emax (5-HT2A [1]) [%] | Emax (5-HT2A [2]) [%] | EC50 (5-HT2A [1]) [µM] | EC50 (5-HT2A [2]) [µM] |
| --- | --- | --- | --- | --- | --- |
| COc1cc([C@H](O)[C@@H](C)N)c(OC)cc1Br (as salt: hydrochloride) [Compound 8, (+)-erythro-(1S,2R)-1-Hydroxy-1-(4-bromo-2,5-dimethoxyphenyl)-2-aminopropane Hydrochloride] | 194 to 196 | – | – | – | – |
| COc1cc([C@@H](O)[C@@H](C)N)c(OC)cc1Br (as salt: hydrochloride) [Compound 11, (−)-threo-(1R,2R)-1-Hydroxy-1-(4-bromo-2,5-dimethoxyphenyl)-2-aminopropane Hydrochloride] | 214 to 215 | – | – | – | – |
| CC[C@H](N)[C@H](O)c1cc(OC)c(Br)cc1OC (as salt: oxalate) [Compound 7, (−)-erythro-(1R,2S)-1-Hydroxy-1-(4-bromo-2,5-dimethoxyphenyl)-2-aminobutane Oxalate] | 203 to 205 | – | – | – | – |
| COc1cc([C@@H](OC)[C@H](C)N)c(OC)cc1Br (as salt: oxalate) [Compound 12, (−)-erythro-(1R,2S)-1-Methoxy-1-(4-bromo-2,5-dimethoxyphenyl)-2-aminopropane Oxalate] | 186 to 188 | – | – | – | – |
| COc1cc(C(O)CN)c(OC)cc1CCCc1ccccc1 (racemic) (as salt: hydrochloride) [Compound 5, (±)1-Hydroxy-1-[4-(3-phenylpropyl)-2,5-dimethoxyphenyl]-2-aminoethane Hydrochloride] | 174 to 176 | – | – | – | – |
| COc1cc(C(O)CN)c(OC)cc1CCCc1ccccc1 (racemic) [Compound 5, (±)1-Hydroxy-1-[4-(3-phenylpropyl)-2,5-dimethoxyphenyl]-2-aminoethane Hydrochloride, reference compound] | – | 3.1 | – | – | – |
| COc1cc(C(O)C(C)N)c(OC)cc1Br (single isomer, unassigned; (+)) (as salt: hydrochloride) [Compound 10] | 213 to 214 | – | – | – | – |
| COc1cc(C(O)C(C)N)c(OC)cc1Br (single isomer, unassigned; (+)) [Compound 10, Hydrochloride] | – | 16 | 47 | – | – |
| COc1cc(C(OC)C(C)N)c(OC)cc1Br (single isomer, unassigned; (+)) [Compound 15] | – | 31 | – | 1.41 | – |
| COc1ccc(OC)c(C(O)C(C)N)c1 (stereo not shown) [Compound 1, reference compound] | – | 9 | – | – | – |
| COc1cc(C(O)CN)c(OC)cc1Br (stereo not shown) [Compound 6, reference compound] | – | 7.8 | – | – | – |
| CC[C@H](N)[C@H](O)c1cc(OC)c(Br)cc1OC [Compound 7, (−)-erythro-(1R,2S)-1-Hydroxy-1-(4-bromo-2,5-dimethoxyphenyl)-2-aminobutane Oxalate, reference compound] | – | 4.8 | – | – | – |
| COc1cc([C@H](O)[C@@H](C)N)c(OC)cc1Br [Compound 8, (+)-erythro-(1S,2R)-1-Hydroxy-1-(4-bromo-2,5-dimethoxyphenyl)-2-aminopropane Hydrochloride] | – | 20 | 57 | – | 8 |
| COc1cc([C@@H](O)[C@H](C)N)c(OC)cc1Br [Compound 9, (−)-erythro-(1R,2S)-1-Hydroxy-1-(4-bromo-2,5-dimethoxyphenyl)-2-aminopropane Hydro-chloride] | – | 22 | 68 | 0.084 | 1.18 |
| COc1cc([C@@H](O)[C@@H](C)N)c(OC)cc1Br [Compound 11, (−)-threo-(1R,2R)-1-Hydroxy-1-(4-bromo-2,5-dimethoxyphenyl)-2-aminopropane Hydrochloride] | – | 54 | 102 | 0.0969 | 1.13 |
| COc1cc([C@@H](OC)[C@H](C)N)c(OC)cc1Br [Compound 12, (−)-erythro-(1R,2S)-1-Methoxy-1-(4-bromo-2,5-dimethoxyphenyl)-2-aminopropane Oxalate] | – | 54 | 100 | 1.33 | 1.08 |
| COc1cc([C@H](OC)[C@@H](C)N)c(OC)cc1Br [Compound 13, (+)-erythro-(1S,2R)-1-Methoxy-1-(4-bromo-2,5-dimethoxyphenyl)-2-aminopropane Oxalate] | – | 49 | 117 | 5.04 | 4.61 |
| COc1cc([C@@H](OC)[C@@H](C)N)c(OC)cc1Br [Compound 14, (−)-thero-(1R,2R)-1-Methoxy-1-(4-bromo-2,5-dimethoxyphenyl)-2-aminopropane Oxalate] | – | 93 | 111 | 0.126 | 0.0424 |
